From ChEMBL document CHEMBL5729192, “CD73 inhibitors” (2022)

target: 5'-nucleotidase (Homo sapiens, UniProt P21589); experiment: Biochemical Assay: Assay Reaction ConditionsAssay Volume: 70 μlReaction Volume: 50 μlCD73: 0.3208 nMAMP: 15 μMAssay Buffer: 2 5 mM Tris-HCL, pH 7.4, 0.01% Brij-35, 0.01% BSA, 5 mM MgCl2Assay Procedure:Used 384 clear plate.Made dose titration of testing compounds in assay buffer, 10 points ½ log titrations in duplicates starting at 100 μM.Added 25 μl of CD73 to each well for a final concentration of 320 pM.Incubated at RT for 15 min.Added 25 μl of AMP to each well for a final concentration of 15 μM.Incubated at RT for 10 min.Added 10 μl of Malachite Green Reagent A, incubate at RT for 10 min.Added 10 μl of Malachite Green Reagent B, incubate at RT for 45 min.Read the Absorbance on Envision plate reader using excitation filter: Cy5 620 nM.
Sequence (P21589 whole entry): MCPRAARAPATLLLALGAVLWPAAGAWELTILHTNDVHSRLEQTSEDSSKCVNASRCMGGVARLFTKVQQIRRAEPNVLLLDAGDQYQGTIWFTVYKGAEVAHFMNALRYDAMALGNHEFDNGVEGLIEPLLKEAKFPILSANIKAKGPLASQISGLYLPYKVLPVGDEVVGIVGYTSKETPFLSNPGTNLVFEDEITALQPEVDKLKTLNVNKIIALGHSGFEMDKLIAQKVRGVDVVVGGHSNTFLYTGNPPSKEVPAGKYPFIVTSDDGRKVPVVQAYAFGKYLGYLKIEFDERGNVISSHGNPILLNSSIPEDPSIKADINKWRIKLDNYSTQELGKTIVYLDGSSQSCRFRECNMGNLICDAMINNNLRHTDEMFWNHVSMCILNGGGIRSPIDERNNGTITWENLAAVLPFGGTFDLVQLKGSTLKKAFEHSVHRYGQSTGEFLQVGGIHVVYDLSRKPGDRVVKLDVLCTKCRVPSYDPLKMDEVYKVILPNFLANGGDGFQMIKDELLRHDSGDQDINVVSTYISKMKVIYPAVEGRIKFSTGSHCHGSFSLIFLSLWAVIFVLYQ

Row | IC50 [µM] | SMILES
1 | < 0.5 | O=P(O)(O)COC[C@H]1O[C@@H](n2ncc3c(NCc4cccc(Cl)c4Cl)nc(Cl)nc32)[C@H](O)[C@@H]1O
2 | < 0.5 | C[C@]1(O)C[C@@H](Nc2nc(Cl)nc3c2cnn3[C@@H]2O[C@H](COCP(=O)(O)O)[C@@H](O)[C@H]2O)C1
3 | < 0.5 | CNc1nc(Cl)nc2c1cnn2[C@@H]1O[C@H](COCP(=O)(O)O)[C@@H](O)[C@H]1O
